Reference: US12265087B2, “Olfactory receptor as microglia marker and use thereof” (DAEGU GYEONGBUK INSTITUTE OF SCIENCE AND TECHNOLOGY, priority 2019, dated 2025)

Experiments:
[1] = test system: microglia; assay: Ex vivo phagocytosis of microglia in brain slices (time-lapse confocal imaging); format: cell-based, mouse; settings: brain slices of CX3CR1 GFP/+ mice
Description: In this experiment, to examine the phagocytotic action of microglia, the brain of a 9-week-old male CX3CR1^GFP/+ mouse was sliced to a thickness of 150 μm using a vibratome (Leica VT1200), and stored in a ice-cooled artificial cerebrospinal fluid (aCSF: 120 mM NaCl, 25 mM NaHCO3, 1.25 mM NaH2PO4, 5 mM KCl, 1 mM CaCl2, 1 mM MgSO4, […], pH7.4). Afterwards, the sliced brain was incubated to remove cell debris. Oxygen-treated aCSF was pretreated in a perfusion chamber at 37° C. for 2 hours. Subsequently, before incubation, the sliced brain was incubated with 500 μl of aCSF containing 9.10×10^7 microspheres (360/407 […]; #17458; Polysciences), and covered with a customized nylon grid. Time lapse videos were recorded every minute for 92 minutes using a confocal microscope. The number of phagocytosing microglia was counted from the images.

[2] = test system: microglia; assay: Fura-2/AM calcium imaging of microglia; format: cell-based, mouse; settings: 2-PF 100, 300, 1000 μM
Description: Twenty-four hours after newly isolated microglia were mounted on poly-D-lysine-coated 18-mm aperture microscope cover glasses (#0111580; Marienfeld), the microglia were incubated in a superfusion chamber for 30 minutes. The chamber contained 4 μM of Fura-2/AM (Ca^2+-sensitive fluorescent dye; #F1221; Thermo Fisher Scientific) in Ringer's solution (115 mM NaCl, 2.5 mM KCl, 1 mM CaCl2, 1.5 mM MgCl2, 4.5 mM HEPES, pH 7.4) filtered through a filter with a 0.22-μm pore. After calcium staining culture, the chamber was placed under an inverted microscope and washed with Ringer's solution for 20 minutes prior to […] treatment. Here, a flow rate of the solution is 12 ml/min. Subsequently, primary microglia were treated with 300 μM ATP (#A2383; Sigma Aldrich) for 5 seconds. After washing for 5 minutes, the primary microglia were treated with a 100 μM 2-PF solution for 5 seconds. This step was accomplished with two different concentrations (300 and 1000 μM) of 2-PF solution. Finally, the microglia were treated with a 300 μM ATP solution for 5 seconds. An emitted fluorescent material was photographed every 2 seconds using a CCD camera. Pseudo-color images were converted using fractional fluorescence changes (ΔF/F, Δ[Ca^2+]i). In addition, these images show changes in intracellular calcium ions. […]

[3] = Disease behavior: mouse mobility after IP injection; format: in vivo; settings: 2-PF injection (IP), three concentrations
Description: It is known that an increase in disease behavior by microglial activation is due to an increase in secreted cytokines. To confirm the increase in disease behavior with the increase in cytokines, this experiment was conducted. The evaluation of disease behavior was accomplished after IP injection of Sup or 2-PF into the mice.
After IP injection, a mouse was placed in a space with four open sides (40×40×40 cm, white field, black wall), and the location of the mouse was recorded with a camera for 30 minutes, and then a moving distance thereof was calculated. Afterward, the data was plotted in a pseudo-color heat map using EthoVision XT (Noldus, Netherlands).

[4] = test system: Hana3A cells expressing Olfr110; assay: Boyden chamber chemotaxis assay, Hana3A cells expressing Olfr110; format: cell-based; settings: 2-PF 10, 100 and 1000 μM
Description: Chemotaxis was measured using a multi-well Boyden chamber. More specifically, a polycarbonate filter (8 μm pore; #101-8; Neuroprobe) was coated with […] fibronectin (Sigma-Aldrich) in PBS for 2 hours, and the coated filter was installed in a Boyden chamber. In addition, the bottom side of a plate was filled with serum-free DMEM containing 2-PF or a culture supernatant. Subsequently, microglia or Hana3A cells were transfected with an OR construct, and then suspended in serum-free DMEM. The microglia were kept at 37° C. for 4 hours, and the Hana3A cells for 8 hours. Cells that migrated to the bottom surface were fixed with 4% PFA, and stained with hematoxylin for 10 minutes. The migrated cells were counted under a light microscope in five randomly selected fixed […] fields (200×) using a scored eyepiece. A chemotaxis index was defined as the migrated cell number normalized against the untreated group.

[5] = test system: primary microglia; assay: cAMP ELISA in primary microglia; format: cell-based, mouse; settings: 2-PF 0, 100, 500 μM
Description: Primary microglia were seeded in 48-well plates (2×10^5 cells/well) and treated with 30 μM forskolin (#F3917, Sigma Aldrich) or 2-PF (10, 100, 500 μM) for 30 minutes. To confirm the effect of an inhibitor, 1 mM of S Q22536 (#17318-31-9; Calbiochem) was pretreated first for 30 minutes. The cells were lysed in 0.1 M of HCl with 1% Triton X 100 for 10 minutes, the lysate was centrifuged at 600×g for 2 minutes. The resulting supernatant was directly used for cAMP analysis with a cAMP ELISA kit (Enzo Life Science) according to the manufacturer's protocol. An optical density at 405 nm was measured using a VersaMax microplate reader (Molecular Devices).

For `CCCCCc1ccco1` [2-PF, 2-pentylfuran], the “activity of phagocytosis of microglia ex vivo” value [1] was “increased”, the “intracellular calcium ion levels” value [2] was “increased according to an injection amount” and the mouse mobility [3] was “concentration-dependent decrease”. The “mobility of Olfr110 cells (chemotaxis assay)” value [4] was “increased in mobility in a concentration-dependent manner” and the cAMP concentration [5] was “increased by 2-PF treatment in a concentration dependent manner”.
